Assay results published in patent US20020197244A1, “Compositions and methods for regulating phagocytosis and ICAM-1 expression” (priority 1998, published 2002).

B1: STI: Soybean trypsin inhibitor, a serine protease inhibitor capable of affecting the PAR-2 pathway (protein, UniProt P01070 25-205, looked up)
Trypsin inhibitor A: DFVLDNEGNPLENGGTYYILSDITAFGGIRAAPTGNERCPLTVVQSRNELDKGIGTIISSPYRIRFIAEGHPLSLKFDSFAVIMLCVGIPTEWSVVEDLPEGPAVKIGENKDAMDGWFRLERVSDDEFNNYKLVFCPQQAEDDKCGDIGISIDHDDGTRRLVVSKNKPLVVQFQKLDKESL

Columns and labels:
[1] = system: human keratinocyte cell line HaCaT; assay: Fluorescent microsphere ingestion by keratinocyte cell line HaCaT; assay type: cell-based; conditions: FIG. 2
Method: In order to study the role of the PAR-2 pathway in phagocytosis, several in vitro model systems were used. One system used contained primary human keratinocytes or a human keratinocyte cell line. In this and a number of following examples, cells were treated with test compounds for different amounts of time (from one hour to three days), and samples were then incubated with fluorescent microspheres for two hours. The beads ingested by the cells were photographed using fluorescence microscopy.
(§1) In this example, human primary keratinocytes or the human keratinocyte cell line HaCaT were used as in vitro model systems to study the effect of PAR-2 regulators on keratinocyte phagocytosis. The human primary keratinocytes used are commercially available from Clonetics (San Diego, Calif.). Cells were plated on chamber slides, at 2 chambers/slide and 60,000 cells/chamber. Cells were treated once daily, for two or three days, with Compound I (1μM), SLIGRL (10μM), or vehicle (Phosphate-buffered saline, (“PBS”) from Gibco-BRL (Gaithersburg, Md.). After two or three days of exposure to the test compounds, cells were exposed to Nile-red or FITC fluorescent microspheres, 1 μm in diameter, 50 microspheres/cell, for two hours at 37° C. Microspheres were from Molecular Probes (Eugene, Oreg.), and were processed according to manufacturer's instructions. Following that treatment, cells were incubated with 15% Fetal Bovine Serum (“FBS”, from Gibco-BRL), for 15 minutes at 37° C. and rinsed with PBS. At that time, chambers were separated from the slides, and the slides were covered with glycerol and coverslips. Fluorescent microscopy was performed using a Zeiss Axiovert 35 or a Nikon Optiphot-2 microscope.
The same results were also obtained when the human keratinocyte cell line HaCaT was used instead of the primary keratinocytes (see FIG. 2). SLIGRL, STI and Compound I were tested for their effect on keratinocyte phagocytosis. In these experiments, the extracellular accumulation of microspheres could be washed off. […]

[2] = system: macrophage cell line IC-21; assay: Fluorescent microsphere ingestion by macrophages; assay type: cell-based; conditions: IC-21 macrophages
Method: as §1
The experiment described in Example 1 was repeated using the macrophage cell line IC-21 (obtained from the ATCC), which shares phagocytic characteristics with peritoneal macrophages. As shown for keratinocytes and fibroblasts, Compound I and STI reduced, and SLIGRL increased, the number of microspheres ingested by these macrophages which are “professional phagocytic” cells.

[3] = system: macrophage cell line IC-21; assay: Vybrant Phagocytosis Assay Kit, fluorescein-labeled E. coli K-12 particles; assay type: cell-based; conditions: for % effect (ingestion): treated overnight, 100 nM Compound I, 5 μM SLIGRL, 0.1 mg/ml STI, untreated control = 100, one experiment of three; for phagocytosis, dose-response: STI 0, 0.01, 0.1, 1 mg/ml, Compound I 0.01, 0.1, 1 nM, FIG. 4A, 4B
Method: To better quantify the level of phagocytosis, the “Vybrant™ Phagocytosis Assay Kit” of Molecular Probes (Eugene, Oreg.) was used, following manufacturer's instructions, with modification of cell culture conditions for the IC-21 cell line. This kit uses Fluorescein-labeled E. coli K-12 particles, and is designed for quantifying the effects of drugs or other environmental factors on phagocytic functions. Macrophages were treated overnight with 100 nM of Compound I, 5 μM of SLIGRL, or 0.1 mg/ml of STI, all dissolved in PBS. The ability of the treated macrophages to ingest the fluorescent E. coli, as measured by this kit, is documented in Table 1. This experiment was repeated three times.
In order to verify the quantitative nature of the macrophage-phagocytosis assay, a dose-response experiment was performed. Macrophages were treated with 0, 0.01, 0.1 and 1 mg/ml of STI, and the experiment was performed as described in Example 3. […] Each experiment was repeated three times.

Human keratinocytes = assay: Keratinocyte microsphere phagocytosis dose-response, image analysis; assay type: cell-based; conditions: two days; for phagocytosis with increasing concentrations: SLIGRL 0, 5 and 10M, Compound I 1 pM to 1 μM, STI 0.01 to 1 mg/ml; for % Ingestion: untreated = 100 +/− 12
Method: as §1
Dose-response Relationship Between PAR-2 Signaling and Keratinocyte Phagocytosis Human keratinocytes were treated with increasing concentrations of SLIGRL, the PAR-2 peptide activator and agonist, at 0, 5 and 10M for two days in the same manner as set forth in Example 1. […] Human keratinocytes were also treated with increasing concentrations of Compound I and STI for two days.
Image analysis of the fluorescent beads inside the keratinocytes was used as an alternative way to quantify the phagocytic effect in this system. Empire Imagins Database Version 1.1 was used on a Gateway 2000 P5-100 computer (Media Cybernetics, Silver Springs, Md.) for capturing images. Image Pro Plus version 1.3 was used for measurements, and Microsoft Excel version 5.0 was used for data processing. Data obtained from this keratinocyte-microsphere system were in full agreement with data from the macrophage/E. coli system.

Keratinocytes [4] = assay: Melanin/melanosome uptake by keratinocytes, Fontana-Mason staining; assay type: cell-based; conditions: treated two days, melanin two hours; FIG. 5A; same results with isolated melanosomes (FIG. 5B)
Method: This example tests the ability of keratinocytes to acquire melanin or melanosomes in vitro, and thus function as a simplified system for melanosome uptake in the skin. Keratinocytes were plated in glass chamber-slides as described earlier, and were treated for two days with SLIGRL, Compound I or STI. At that time, melanin powder (from Sigma, St. Louis, Mo.) was mixed in sterile PBS at 10 μg/ml, and was added to the culture media (1:10 dilution) for two hours. Cells were then washed with PBS and stained with Fontana-Mason (“F&M”) staining. F&M stains silver nitrate-reducing molecules, thereby permitting the identification of melanins inside the keratinocytes. […] This system, therefore, can mimic melanosome transfer and melanin distribution in vivo, as skin keratinocytes use melanin as an UV-protective cap over their nuclei. […] The same results were also observed using melanosomes isolated as described in S. Orlow, et al., J.I.D. 100:55-64 (1993) (FIG. 5B).

ICAM-1 = ICAM-1 immunofluorescent staining of keratinocytes; assay type: cell-based, human; conditions: vs untreated keratinocytes; FIG. 6A
Method: Intercellular adhesion molecule-1 (ICAM-1) is an inducible cell-surface glycoprotein that is implicated in cell-cell adhesion, cell membrane raffling and phagocytosis. Therefore, the effect of PAR-2 modulation on ICAM-1 was tested. Keratinocytes were grown in chamber slides and treated with SLIGRL, Compound I and STI as described, followed by immunofluorescent staining for ICAM-1 using standard procedures. Normal donkey serum, (used at 1:5 dilution), was obtained from Jackson Immunoresearch Laboratory (Westgrove, Pa.). A polyclonal goat anti-human ICAM-1 antibody, (used at 1:200 dilution), was obtained from R&D Systems (Minneapolis, Minn.), and FITC-conjugated donkey anti-goat antibody was obtained from Jackson Immunoresearch Laboratory. […] In untreated keratinocytes, ICAM-1 was localized mainly to the plasma membrane, with some staining at the nuclear membrane.

Keratinocytes [5] = assay: F-actin staining of keratinocytes; assay type: cell-based; conditions: Compound I 10 nM, STI 0.1 mg/ml, SLIGRL 5 μM; FIG. 9
Method: Therefore, the organization of F-actin filaments following PAR-2 modulation was tested. Keratinocytes were treated with Compound I (10 nM), STI (0.1 mg/ml), or with SLIGRL (5 μM) as described in Example 1, and stained for F-actin using standard techniques.

Row | Molecule | microsphere ingestion [1] | number of microspheres ingested [2] | % effect (ingestion) [3] | phagocytosis with increasing concentrations (Human keratinocytes) | uptake (internalization) of melanin by keratinocytes (Keratinocytes [4]) | intracellular localization of ICAM-1 (ICAM-1) | actin filaments organization (Keratinocytes [5]) | phagocytosis, dose-response [3] | % Ingestion (Human keratinocytes; STI 0.01%) | % Ingestion (Human keratinocytes; STI 0.1%) | % Ingestion (Human keratinocytes; STI 1%)
1 | CN[C@H](Cc1ccccc1)C(=O)N1CCCC1C(=O)N[C@@H](CCCNC(=N)N)C(=O)c1nc2ccccc2s1 (stereo partly drawn) [Compound I, (S)-N-Methyl-D-phenylalanyl-N-[4-[(aminoiminomethyl)amino]-1-(2-benzothiazolylcarbonyl)butyl]-L-prolinamide] | reduce microsphere ingestion | reduced | 89.9 +/− 13.6% | dose-dependent decrease in phagocytosis | dramatically reduce the uptake of melanin | less staining was observed at the cytoplasmic membrane, and more at the nuclear membrane | reduced the ordered organization of the cell cortex |  |  |  | 
2 | SLIGRL [reference compound] | increased microsphere ingestion | increased | 331.6 +/− 5.9% | increased phagocytosis | dramatically increases the internalization of melanin | increased and more diffused cytoplasmic membrane staining, and reduced nuclear membrane staining | induced actin polymerization around the cell cortex | increase in phagocytosis |  |  | 
3 | B1 | reduce microsphere ingestion | reduced | 56.06 +/− 12.4% | dose-dependent decrease in phagocytosis | dramatically reduce the uptake of melanin | less staining was observed at the cytoplasmic membrane, and more at the nuclear membrane | reduced the ordered organization of the cell cortex | dose-response of decreased phagocytosis | 76 +/− 15% | 55 +/− 14% | 41.6 +/− 11%
